Molecular target: human PPARγ
Experiment: Gel-based PPARγ binding kinetics (Kitz and Wilson)
Conditions: recombinant PPARγ, 10-60 min preincubation, 24c-Cy3 readout, n=3
Description: Briefly, recombinant human PPARγ was pretreated with compounds at 20 μM concentration followed by the probe 24c-Cy3. […] Assuming covalent bond formation with PPARγ, we applied the method of Kitz and Wilson[52] to determine the kinetic values Ki and kinact for deoxyelephantopin and compound 19a (Supplementary Fig. 17). We observed clear time-dependent shift in half-maximal inhibitory concentration (IC50) values characteristic for an irreversible mode of binding.
Supplementary figure 17: Determination of the kinetic values Ki and kinact for 19a and DEP as binders to human PPARγ (n = 3).
Supplementary figure 18: F γ
24c-Cy3 after pretreatment with 10 mM IAA or DMSO. […]
for 30 min. at 37 °C under 5% CO2 atmosphere. Cells were washed one time with PBS and fixed with 4% paraformaldehyde for 20 min. at r.t. Coverslips were washed three times with PBS, one time with water and then mounted on a slide with ProLong Gold antifade mountant with DAPI (Life Technologies). Cells were visualized with an LSM 700 confocal microscope […]
Annexin V and PI staining for cell microscopy. […]
In situ labeling experiments. […] Gels were visualized at 625 nm using a Hitachi FMBIO II Multi-View fluorescence scanner, then […]
visualization were performed as described above. Images were quantified with ImageJ and kinetics values were calculated using GraphPad Prism (V6.03). […]

Row | Compound | kinact/Ki
1 | C=C(C)C(=O)O[C@H]1CC2=C[C@H](C/C=C\[C@H]3OC(=O)C(=C)[C@H]13)OC2=O [19a] | 1,241 M^−1 min^−1
2 | C=C(C)C(=O)O[C@H]1CC2=C[C@@H](C/C(C)=C/[C@H]3OC(=O)C(=C)[C@H]13)OC2=O [deoxyelephantopin] | 680 M⁻¹ min⁻¹
